Results from patent publication US8834549B2, “One-step phosphorylcholine-linked polymer coating and drug loading of stent” (Abbott Laboratories, priority 2007, dated 2014).

Assay: Total drug level on stents after ETO cycles by extraction and HPLC
Format: physicochemical
Conditions: 5 stents with 1 ETO cycle, 5 stents with 3 ETO cycles
Procedure: Weighed 129 mg of ABT-578, a rapamycin derivative and 280 mg of phosphorylcholine-linked methacrylate terpolymer PC1036 and dissolved them in 10 ml of […] by shaking overnight protected from light. The solution was filtered through a 0.45 micron Teflon filter and the solution was added to the syringe reservoir of a semi-automated spray atomization gun coupled to a lathe-like device designed to hold stents, rotate them and translate them linearly in front of the spray gun. The equipment was programmed to spray enough solution in order to obtain about 10 micrograms of drug per linear mm of stent length, taking into account the losses of solution due to lack of contact with the stent as it is sprayed. After spraying, the stents were allowed to dry in air, followed by packaging them individually in glass vials sealed with an ETO permeable Tyvec membrane. The samples were sent out for ETO sterilization by one or three complete cycles.
Analysis was done of the total drug level from 5 stents that underwent 1 ETO cycle and 5 stents that underwent 3 ETO cycles using standard extraction and HPLC analysis.

- stability of drug on stent to ETO cycles (total drug level, 3 cycles vs 1 cycle): stable to 3 ETO cycles
Structure (SMILES): CO[C@H]1C[C@@H]2CC[C@@H](C)[C@@](O)(O2)C(=O)C(=O)N2CCCC[C@H]2C(=O)O[C@H]([C@H](C)C[C@@H]2CC[C@H](n3cnnn3)[C@H](OC)C2)CC(=O)[C@H](C)/C=C(\C)[C@@H](O)[C@@H](OC)C(=O)[C@H](C)C[C@H](C)/C=C/C=C/C=C/1C [ABT-578]
